Experiments:
wound or burn = test: healing of wounds and burns with ribose, alone or with antibiotics; type: in vivo; conditions: ribose by itself, taken internally and/or placed on the skin
Description: TENS devices were part of patent application No. 09/545,121 as one of the non-living source energy devices and how they relate to D-ribose. Shortly before the turn of the 21st century, an important ATP precursor, D-ribose, became commercially available at prices low enough to enable it to be mass marketed. Before this Carniglia, et al, in U.S. Pat. Nos. 4,923,851 and 5,391,550 taught that ribose along with other nutrients helped heal induced skin lesions in mice but only as one of several listed precursors. […] The reason for this is that ribose is not available in quantity in food like other nutrients are. This component of ATP must be synthesized from glucose in the mitochondria in the glucose hexophosphate shunt (also called the pentose phosphate pathway) where a carbon atom is removed tediously by enzymatic action from glucose and phosphorylated over from 72 to 96 hours to provide the phosphorylated ribose radical. […]

actinic keratoses = test: daily oral intake of D-ribose by the inventor, actinic keratoses; type: in vivo, human; conditions: 10 grams of D-ribose by mouth daily, after several months; inventor on themself
Description: Another use for D-ribose is with certain skin lesions that are the result of solar-caused degeneration of the skin by exposure to the sun. This condition is commonly referred to as actinic keratosis. […] Since 5% of these lesions degenerate into squamous cell carcinomas, the use of ribose alone would be useful. On the other hand, it also may be used as part of a topical formulation. Topical 5-fluorouracil formulations (5-fluorouracil being a pyrimidine analogue with anti-neoplastic action because certain neoplasms incorporate uracil into their ribonucleic acid more readily than in normal cells) have been used to eradicate actinic keratosis in place of “spot” cryosurgery and curettage, with as much as 5% fluorouracil used. Recently there came on the market a new microsphere-based formulation using a microsphere vehicle called Microsponge® in a topical cream containing only 0.5% fluorouracil. It is applied once daily with good results and less than 1/40th the systemic fluorouracil absorption compared to that of 5% fluorouracil. The course of treatment ranged over a 4-week period. While using D-ribose systemically by itself works slowly on presumed, non-malignant actinic keratoses and senile keratoses when malignancy is questioned (as it always must be even with a histological or clinical diagnosis to the contrary), using D-ribose systemically is not enough for every case.

## O=C[C@H](O)[C@H](O)[C@H](O)CO [D-ribose]
Wound or burn
  healing: helps healing significantly
Actinic keratoses
  large actinic keratoses on forehead and wrists: simply disappeared
